Reference: US7135466B2 (Kirin Beer Kabushiki Kaisha, priority 1999, dated 2006)

Key:
PDGF-Ra = target: T1, PDGF-Ra (Homo sapiens, UniProt P16234); assay: Inhibitory activity against PDGF-Ra phosphorylation by PDGF-AA stimulation using G292; type: cell-based; settings: for IC50: > means inhibition at indicated concentration not more than 50%, < and << not less than 50%, read-out: PDGF (E) IC50; for inhibition at 0.1 µM: G292, figure within parentheses in >100( ), at 100 nM, read-out: PDGF (E) inhibition (%) at 100 nM
T1 construct: host or cells: G-292 human osteosarcoma cells
T1 sequence (P16234 24-1089): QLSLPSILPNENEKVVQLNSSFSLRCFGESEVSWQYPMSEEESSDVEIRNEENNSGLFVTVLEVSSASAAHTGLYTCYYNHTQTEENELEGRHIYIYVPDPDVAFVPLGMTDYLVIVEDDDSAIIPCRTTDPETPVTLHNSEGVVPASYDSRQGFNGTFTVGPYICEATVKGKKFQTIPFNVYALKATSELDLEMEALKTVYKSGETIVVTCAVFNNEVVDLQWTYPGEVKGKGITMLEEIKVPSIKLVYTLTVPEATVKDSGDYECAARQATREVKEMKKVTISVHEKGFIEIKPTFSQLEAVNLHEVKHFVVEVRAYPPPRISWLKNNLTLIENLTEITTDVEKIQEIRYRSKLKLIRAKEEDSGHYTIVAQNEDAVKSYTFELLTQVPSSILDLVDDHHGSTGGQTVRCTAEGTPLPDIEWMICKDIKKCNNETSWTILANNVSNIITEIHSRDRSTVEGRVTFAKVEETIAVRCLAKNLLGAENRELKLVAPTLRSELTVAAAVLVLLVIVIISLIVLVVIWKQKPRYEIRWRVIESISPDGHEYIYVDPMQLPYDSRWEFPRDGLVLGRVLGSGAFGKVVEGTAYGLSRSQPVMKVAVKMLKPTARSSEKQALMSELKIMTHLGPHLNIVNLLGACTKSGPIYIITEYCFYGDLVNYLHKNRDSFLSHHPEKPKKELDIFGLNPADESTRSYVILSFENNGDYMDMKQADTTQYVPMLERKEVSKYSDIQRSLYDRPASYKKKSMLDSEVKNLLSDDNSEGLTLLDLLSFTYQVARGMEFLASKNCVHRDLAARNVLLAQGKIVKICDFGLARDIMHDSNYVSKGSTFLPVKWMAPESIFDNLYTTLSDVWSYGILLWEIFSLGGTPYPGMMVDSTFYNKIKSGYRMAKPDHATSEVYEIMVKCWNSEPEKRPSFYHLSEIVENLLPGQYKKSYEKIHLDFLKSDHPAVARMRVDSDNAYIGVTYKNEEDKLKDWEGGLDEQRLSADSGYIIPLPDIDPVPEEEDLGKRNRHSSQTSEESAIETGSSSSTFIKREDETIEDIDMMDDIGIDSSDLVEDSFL
Procedure, shortened: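 Read-out: A450 from a sandwich ELISA (PY-20 capture, anti-PDGF-Ra detection, peroxidase colour) of lysates from G-292 cells given compound for 1 hr at 37 °C before a 5 min challenge with PDGF-AA at 50 ng/ml.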

c-kit = target: T2, c-kit (Homo sapiens, UniProt P10721); assay: Inhibitory activity against c-kit autophosphorylation (MO7e cells, h-SCF); type: cell-based; settings: for IC50: MO7e cells, 50 ng/ml h-SCF, read-out: c-kit IC50; for inhibition at 1 µM: Mo7e, figure within parentheses in −( ) or >1000( ), at 1000 nM
T2 construct: MO7e (human megakaryocytic leukemia cell line) which had been arrested for 20 hr; endogenous in cells; host or cells: MO7e human megakaryocytic leukemia cell line
T2 sequence (P10721 26-976): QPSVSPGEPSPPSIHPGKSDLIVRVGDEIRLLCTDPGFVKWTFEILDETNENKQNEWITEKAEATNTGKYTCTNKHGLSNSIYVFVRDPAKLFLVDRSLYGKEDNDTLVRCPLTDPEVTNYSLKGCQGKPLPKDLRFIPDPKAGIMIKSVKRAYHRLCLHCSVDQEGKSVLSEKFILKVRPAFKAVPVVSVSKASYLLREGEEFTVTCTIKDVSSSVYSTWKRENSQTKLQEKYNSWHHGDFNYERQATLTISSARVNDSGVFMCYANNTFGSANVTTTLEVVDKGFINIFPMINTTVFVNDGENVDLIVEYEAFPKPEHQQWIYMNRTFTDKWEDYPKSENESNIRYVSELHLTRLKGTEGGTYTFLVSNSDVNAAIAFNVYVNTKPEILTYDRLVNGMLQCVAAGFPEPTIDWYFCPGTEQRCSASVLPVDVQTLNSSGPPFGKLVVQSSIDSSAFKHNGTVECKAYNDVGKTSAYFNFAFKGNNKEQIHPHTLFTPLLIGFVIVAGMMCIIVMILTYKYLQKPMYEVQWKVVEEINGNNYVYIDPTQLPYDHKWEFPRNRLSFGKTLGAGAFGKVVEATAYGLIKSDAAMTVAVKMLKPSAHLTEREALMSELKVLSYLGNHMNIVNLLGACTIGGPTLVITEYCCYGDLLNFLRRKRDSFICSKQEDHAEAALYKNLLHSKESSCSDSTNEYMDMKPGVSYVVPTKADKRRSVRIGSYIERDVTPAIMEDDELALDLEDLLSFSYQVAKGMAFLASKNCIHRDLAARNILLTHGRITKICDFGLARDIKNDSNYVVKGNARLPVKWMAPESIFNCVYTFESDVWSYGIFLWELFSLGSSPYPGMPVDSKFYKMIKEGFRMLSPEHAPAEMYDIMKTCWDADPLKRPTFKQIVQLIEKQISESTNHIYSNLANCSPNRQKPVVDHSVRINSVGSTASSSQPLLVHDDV
Procedure, shortened: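 Growth-arrested (20 hr) MO7e; cpd in DMSO, 1 hr; h-SCF 50 ng/ml, 5 min; lyse. ELISA: anti-pTyr (PY-20) capture, anti-c-kit 1° Ab, HRP anti-rabbit 2° Ab, A450.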

Row | Compound | IC50 (PDGF-Ra) [nM] | inhibition at 0.1 µM (PDGF-Ra) [%] | IC50 (c-kit) [nM] | inhibition at 1 µM (c-kit) [%]
1 | COc1cc2nccc(Oc3cc(C)c(NC(=O)OC4CCOCC4)cc3C)c2cc1OC [Example 471, Tetrahydro-2H-4-pyranyl N-{4-[(6,7-dimethoxy-4-quinolyl)oxy]-2,5-dimethylphenyl}carbamate] | > 100 | 28 | 237 | –
2 | COc1cc2nccc(Oc3ccc(NC(=O)OC4CCOCC4)c(C)c3C)c2cc1OC [Example 472, Tetrahydro-2H-4-pyranyl N-{4-[(6,7-dimethoxy-4-quinolyl)oxy]-2,3-dimethylphenyl}carbamate] | 31 | – | 67 | –
3 | COc1cc2ncnc(Oc3ccc(NC(=O)OC4CCOCC4)cc3)c2cc1OC [Example 473, Tetrahydro-2H-4-pyranyl N-{4-[(6,7-dimethoxy-4-quinazolinyl)oxy]phenyl}carbamate] | > 100 | 30 | 259 | –
4 | COc1cc2ncnc(Oc3ccc(N(C)C(=O)OC4CCCCC4)c(Cl)c3)c2cc1OC [Example 474, Cyclohexyl N-{2-chloro-4-[(6,7-dimethoxy-4-quinazolinyl)oxy]phenyl}-N-methylcarbamate] | 46 | – | – | 6
5 | CCN(C(=O)OC1CCCCC1)c1ccc(Oc2ncnc3cc(OC)c(OC)cc23)cc1Cl [Example 475, Cyclohexyl N-{2-chloro-4-[(6,7-dimethoxy-4-quinazolinyl)oxy]phenyl}-N-ethylcarbamate] | 15 | – | – | 24
6 | COc1cc2ncnc(Oc3ccc(N(C)C(=O)OC4CCCCC4)cc3)c2cc1OC [Example 476, Cyclohexyl N-{4-[(6,7-dimethoxy-4-quinazolinyl)oxy]phenyl}-N-methylcarbamate] | < 10 | – | 172 | –
7 | CCN(C(=O)OC1CCCCC1)c1ccc(Oc2ncnc3cc(OC)c(OC)cc23)cc1 [Example 477, Cyclohexyl N-{4-[(6,7-dimethoxy-4-quinazolinyl)oxy]phenyl}-N-ethylcarbamate] | 59 | – | 248 | –
8 | COc1ccccc1COC(=O)N(C)c1ccc(Oc2ncnc3cc(OC)c(OC)cc23)cc1Cl [Example 478, 2-Methoxybenzyl N-{2-chloro-4-[(6,7-dimethoxy-4-quinazolinyl)oxy]phenyl}-N-methylcarbamate] | 17 | – | – | 28
9 | COc1cc2ncnc(Oc3ccc(N(C)C(=O)OCc4ccccc4C)c(Cl)c3)c2cc1OC [Example 479, 2-Methylbenzyl N-{2-chloro-4-[(6,7-dimethoxy-4-quinazolinyl)oxy]phenyl}-N-methylcarbamate] | 13 | – | – | 17
10 | COc1cc2ncnc(Oc3ccc(N(C)C(=O)OCc4ccccc4Cl)c(Cl)c3)c2cc1OC [Example 480, 2-Chlorobenzyl N-{2-chloro-4-[(6,7-dimethoxy-4-quinazolinyl)oxy]phenyl}-N-methylcarbamate] | 10 | – | – | 22
11 | CCCC(CCC)OC(=O)N(C)c1ccc(Oc2ncnc3cc(OC)c(OC)cc23)cc1Cl [Example 481, 1-Propylbutyl N-{2-chloro-4-[(6,7-dimethoxy-4-quinazolinyl)oxy]phenyl}-N-methylcarbamate] | 16 | – | – | 3
12 | COc1cc2ncnc(Oc3ccc(N(C)C(=O)OC4CCCCCC4)c(Cl)c3)c2cc1OC [Example 482, Cycloheptyl N-{2-chloro-4-[(6,7-dimethoxy-4-quinazolinyl)oxy]phenyl}-N-methylcarbamate] | 24 | – | – | 5
13 | COc1cc2nccc(Oc3ccc(N(C)C(=O)OCC4CCCCCC4)cc3)c2cc1OC [Example 483, Cycloheptylmethyl N-{4-[(6,7-dimethoxy-4-quinolyl)oxy]phenyl}-N-methylcarbamate] | 20 | – | < 30 | –
14 | COc1cc2ncnc(Oc3ccc(N(C)C(=O)OCC4CCCCCC4)cc3)c2cc1OC [Example 484] | 12 | – | 75 | –
15 | CCN(C(=O)OC1CCCCCC1)c1ccc(Oc2ncnc3cc(OC)c(OC)cc23)cc1Cl [Example 489, Cycloheptyl N-{2-chloro-4-[(6,7-dimethoxy-4-quinazolinyl)oxy]phenyl}-N-ethylcarbamate] | 58 | – | 637 | –
16 | COc1ccccc1COC(=O)N(C)c1ccc(Oc2ncnc3cc(OC)c(OC)cc23)cc1 [Example 490, 2-Methoxybenzyl N-{4-[(6,7-dimethoxy-4-quinazolinyl)oxy]phenyl}-N-methylcarbamate] | 21 | – | 261 | –
17 | COc1cc2ncnc(Oc3ccc(N(C)C(=O)OCc4ccccc4C)cc3)c2cc1OC [Example 491, 2-Methylbenzyl N-{4-[(6,7-dimethoxy-4-quinazolinyl)oxy]phenyl}-N-methylcarbamate] | 24 | – | 315 | –

Second part, the compound after the results:

Row | IC50 (PDGF-Ra) [nM] | inhibition at 0.1 µM (PDGF-Ra) [%] | IC50 (c-kit) [nM] | inhibition at 1 µM (c-kit) [%] | Compound
18 | 20 | – | 321 | – | COc1cc2ncnc(Oc3ccc(N(C)C(=O)OCc4ccccc4Cl)cc3)c2cc1OC [Example 492, 2-Chlorobenzyl N-{4-[(6,7-dimethoxy-4-quinazolinyl)oxy]phenyl}-N-methylcarbamate]
19 | 16 | – | 125 | – | COc1cc2ncnc(Oc3ccc(N(C)C(=O)OC4CCCCCC4)cc3)c2cc1OC [Example 494, Cycloheptyl N-{4-[(6,7-dimethoxy-4-quinazolinyl)oxy]phenyl}-N-methylcarbamate]
20 | 45 | – | – | 32 | C#CCC(CC)OC(=O)N(C)c1ccc(Oc2ccnc3cc(OC)c(OC)cc23)cc1 (stereo not drawn) [Example 496, 1-Ethyl-3-butynyl N-{4-[(6,7-dimethoxy-4-quinolyl)oxy]phenyl}-N-methylcarbamate]
21 | < 10 | – | 82 | – | COc1cc(Oc2ncnc3cc(OC)c(OC)cc23)ccc1NC(=O)OC1CCCCC1 [Example 497, Cyclohexyl N-{4-[(6,7-dimethoxy-4-quinazolinyl)oxy]-2-methoxyphenyl}carbamate]
22 | < 10 | – | 140 | – | COc1cc(Oc2ncnc3cc(OC)c(OC)cc23)ccc1NC(=O)OC1CCCCCC1 [Example 498, Cycloheptyl N-{4-[(6,7-dimethoxy-4-quinazolinyl)oxy]-2-methoxyphenyl}carbamate]
23 | < 10 | – | 98 | – | COc1cc(Oc2ncnc3cc(OC)c(OC)cc23)ccc1NC(=O)OCc1ccccc1Cl [Example 499, 2-Chlorobenzyl N-{4-[(6,7-dimethoxy-4-quinazolinyl)oxy]-2-methoxyphenyl}carbamate]
24 | 14 | – | 199 | – | COc1ccccc1COC(=O)Nc1ccc(Oc2ncnc3cc(OC)c(OC)cc23)cc1OC [Example 500, 2-Methoxybenzyl N-{4-[(6,7-dimethoxy-4-quinazolinyl)oxy]-2-methoxyphenyl}carbamate]
25 | 11 | – | 56 | – | COc1cc(Oc2ncnc3cc(OC)c(OC)cc23)ccc1NC(=O)OCCc1ccccn1 [Example 501, 2-(2-Pyridyl)ethyl N-{4-[(6,7-dimethoxy-4-quinazolinyl)oxy]-2-methoxyphenyl}carbamate]
26 | 87 | – | – | 36 | COc1cc2ncnc(Oc3ccc(NC(=O)OC4CCCCC4)c([N+](=O)[O-])c3)c2cc1OC [Example 503, Cyclohexyl N-{4-[(6,7-dimethoxy-4-quinazolinyl)oxy]-2-nitrophenyl}carbamate]
27 | 46 | – | – | 42 | COc1cc2ncnc(Oc3ccc(NC(=O)OCc4ccccc4Cl)c([N+](=O)[O-])c3)c2cc1OC [Example 504, 2-Chlorobenzyl N-{4-[(6,7-dimethoxy-4-quinazolinyl)oxy]-2-nitrophenyl}carbamate]
28 | 53 | – | – | 25 | COc1cc2ncnc(Oc3ccc(NC(=O)OCc4ccccc4C)c([N+](=O)[O-])c3)c2cc1OC [Example 505, 2-Methylbenzyl N-{4-[(6,7-dimethoxy-4-quinazolinyl)oxy]-2-nitrophenyl}carbamate]
29 | 74 | – | 369 | – | COc1cc2ncnc(Oc3ccc(NC(=O)OCC4CCCCCC4)c([N+](=O)[O-])c3)c2cc1OC [Example 506, Cycloheptylmethyl N-{4-[(6,7-dimethoxy-4-quinazolinyl)oxy]-2-nitrophenyl}carbamate]
30 | 44 | – | 787 | – | COc1cc2ncnc(Oc3ccc(NC(=O)OC4CCCCCC4)c([N+](=O)[O-])c3)c2cc1OC [Example 507, Cycloheptyl N-{4-[(6,7-dimethoxy-4-quinazolinyl)oxy]-2-nitrophenyl}carbamate]
31 | 26 | – | 164 | – | CCCCCCOC(=O)Nc1ccc(Oc2ncnc3cc(OC)c(OC)cc23)cc1[N+](=O)[O-] [Example 509, Hexyl N-{4-[(6,7-dimethoxy-4-quinazolinyl)oxy]-2-nitrophenyl}carbamate]
32 | > 100 | 3 | – | 17 | C#CCC(CC)OC(=O)Nc1ccc(Oc2ncnc3cc(OC)c(OC)cc23)cc1[N+](=O)[O-] (stereo not drawn) [Example 510, 1-Ethyl-3-butynyl N-{4-[(6,7-dimethoxy-4-quinazolinyl)oxy]-2-nitrophenyl}carbamate]
33 | 19 | – | 663 | – | CCN(CC)CCNC(=S)Nc1ccc(Oc2ccnc3cc(OC)c(OC)cc23)c(C)c1C [Example 511, N-{4-[(6,7-Dimethoxy-4-quinolyl)oxy]-2,3-dimethylphenyl}-N′-(2-diethylaminoethyl)thiourea]
